From article PMC11292009, “Mapping protein binding sites by photoreactive fragment pharmacophores” (Communications Chemistry, 2024)
“And” between values parts separate entries of the source, which are not always exact repeats. Equal entries are not always repeated.

Assays:
Format in all cases: binding
BRD4-BD1 = system: T1, BRD4-BD1; assay: Intact MS photoaffinity labeling screen, BRD4-BD1 (302 nm, LCMS-TOF); conditions: for MS labeling percentage, BRD4: BRD4-BD1, 302 nm 10 min; for BRD4-BD1: experimental hit status flag (0/1); for experimental hit status BRD4-BD1: 0/1 flag
T1 construct: screened the PhP library against the first bromodomain of BRD4 (BRD4-BD1); purchased GSK/GenScript
Outline: (§1)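 Labeling detected as mass additions in deconvoluted intact-protein LCMS-TOF spectra. Protein at 1 μM in PBS was first mixed with one fragment per well on ice for 15 min, followed by 10 min UV exposure at 302 nm.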

[1] = system: carbonic anhydrase II (CA); assay: Intact protein MS photoaffinity labeling screen, carbonic anhydrase; conditions: intact protein MS after 10 min irradiation
Outline: (§2)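 Fragments are tested singly per well. Protein and fragment incubate 15 min for non-covalent association, then the plate goes directly to intact protein mass spectrometry, where mass shifts matching fragment addition give the labeling %.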

myoglobin (Myo) = assay: Intact protein MS photoaffinity labeling screen, myoglobin; conditions: intact protein MS after 10 min irradiation
Outline: as §2

KRas^G12D = system: T2, KRas^G12D; assay: Intact MS photoaffinity labeling screen, KRas G12D (302 nm, LCMS-TOF); conditions: for MS labeling percentage, KRas: KRas G12D, 302 nm 10 min; for KRAS-G12D: experimental hit status flag (0/1); for experimental hit status KRAS-G12D: 0/1 flag
T2 construct: purchased GSK/GenScript
Outline: as §1

STAT5B-NTD [2] = system: T3, STAT5B-NTD; assay: Intact MS photoaffinity labeling screen, STAT5B-NTD (365 nm, UHPLC-MS); conditions: for MS labeling percentage, STAT5B: STAT5B-NTD, 365 nm 10 min, no photocatalyst; for STAT5B-NTD: experimental hit status flag (0/1); for experimental hit status STAT5B-NTD: 0/1 flag;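 for MS labeling percentage, STAT5B: 0.17 µL of 100 mM DMSO fragment stock added to the protein sample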
T3 construct: His-SUMO (N, cleaved yes); made in house; host or cells: E. coli BL21 RILP
Outline: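 Intact-protein labeling detected by UHPLC-MS in positive ion mode over m/z 100–2000. Samples were first photo-crosslinked at 365 nm for 10 min at 4 °C. Before irradiation, 7 µM STAT5B in PBS pH 7.4 was pre-incubated with probe for 1 h in the dark at room temperature.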

lysozyme (Lyo) = assay: Intact protein MS photoaffinity labeling screen, lysozyme; conditions: intact protein MS after 10 min irradiation
Outline: as §2

[3] = system: CA, Lyo, Myo, BRD4-BD1, KRas G12D, STAT5B-NTD; assay: Intact MS labeling compared over all protein targets; conditions: for Labeling of the other protein targets (vs. preferred target): each of the other targets
Experimental: Using a plate-based format with one fragment per well, each fragment was incubated with the target proteins for 15 min to allow for the formation of non-covalent interactions. The plate was then irradiated at 302 or 365 nm for 10 min to enable the bound fragments to crosslink to the protein[26]. Finally, the results were directly analyzed from the plate using intact protein mass spectrometry by observing the mass additions that correspond to successful labeling (Fig. 2c, for labeling % values see Supplementary data). The library was first characterized against three benchmark proteins like carbonic anhydrase (CA), lysozyme (Lyo), and myoglobin (Myo).
The PhP library was screened against BRD4-BD1 and KRas^G12D as follows. Using a Labcyte Echo® 555 Liquid Handler, 150 nL of fragment solution (20 mM) was transferred into a Greiner 384 low-volume plate (white) to prepare the probe plate. The probe plate was placed on ice. 15 μL of protein stock solution (1 μM BRD4-BD1 (GSK/GenScript) or KRas^G12D (GSK/GenScript) in PBS buffer) was dispensed into wells containing fragments. The plate was left on ice for 15 min for incubation, then irradiated at 302 nm for 10 min, and centrifuged (1000 rpm, 1 min) to remove any bubbles. The plate was then analyzed by LCMS-TOF mass spectrometry (Agilent 1200 series liquid chromatography with Agilent Bio-HPLC PLRP-S (1000 Å, 5 µm × 50 mm × 1.0 mm, PL1312-1502) reverse phase HPLC column at 70 °C equipped with an Agilent G6224 time-of-flight (ToF), see Supplementary Note 2 for the full protocols). The deconvoluted spectra were analyzed using R Studio software.
During the analysis, the column temperature was maintained at a constant 60 °C, and a sample volume of 3 µL was injected for each analysis. Data acquisition was conducted in positive ion mode within the m/z 100–2000 (mass-to-charge ratio) range. For the full protocol and spectra of the hits, see Supplementary Note 2.

STAT5B-NTD [4] = system: T3, STAT5B-NTD; assay: Intact MS labeling screen, STAT5B-NTD conjugated with photocatalyst Ir-G2-PEG3-COOH (450 nm); conditions: 450 nm 10 min;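 note: 0.14 µL of 100 mM DMSO fragment stock added to the conjugate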
Outline: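 Ir-G2-PEG3-COOH photocatalyst (10 eq) activated 30 min with EDC/NHS/BOP, then conjugated to STAT5B-NTD (7 µM) overnight at RT or 1 h at 37 °C in dark. PhP added, 1 h dark, then 450 nm irradiation 10 min at 4 °C; labeling read by intact LC-MS, positive ion mode, m/z 100–2000.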

[5] = hit flag 1/0, sheet PhP, photoaffinity labeling screen
[6] = sheet PhP, experimental hit status flag given as 0 or 1
[7] = PhP library sheet "PhP", binary flag printed as 0 or 1, key not given

| SMILES | MS labeling percentage, BRD4 (BRD4-BD1) [%] | MS labeling percentage, CA [1] [%] | MS labeling percentage, Myo (myoglobin (Myo)) [%] | MS labeling percentage, KRas (KRas^G12D) [%] | MS labeling percentage, STAT5B (STAT5B-NTD [2]) [%] | MS labeling percentage, Lyo (lysozyme (Lyo)) [%] | Labeling of the other protein targets (vs. preferred target) [3] | MS labeling percentage, STAT5B+photocat (STAT5B-NTD [4]) [%] | experimental hit status BRD4-BD1 (BRD4-BD1) | experimental hit status KRAS-G12D (KRas^G12D) | experimental hit status STAT5B-NTD (STAT5B-NTD [2]) | BRD4-BD1 (experimental hit status) (BRD4-BD1; [5]) | KRAS-G12D (experimental hit status) (KRas^G12D; [5]) | STAT5B-NTD (experimental hit status) (STAT5B-NTD [2]; [5]) | other results |
| --- | --- | --- | --- | --- | --- | --- | --- | --- | --- | --- | --- | --- | --- | --- | --- |
| CC(Cc1ccc(O)c(O)c1)NC(=O)CCC1(C)N=N1 (stereo not drawn) [PhP001, N1=NC1(C)CCC(=O)NC(C)Cc2ccc(O)c(O)c2] | 0.6 | 0 | 0.2 | 0 | 0 | 19.2 | > 1% and < 1% | 0 | – | – | – | – | – | – | BRD4-BD1 (BRD4-BD1): 0; KRAS-G12D (KRas^G12D): 0; STAT5B-NTD (STAT5B-NTD [2]): 0 |
| Cn1ccnc1CCNC(=O)CCC1(C)N=N1 [PhP003, Cn1ccnc1CCNC(=O)CCC2(C)N=N2] | 1.1 | 4.7 | 0.2 | 0.8 | 0 | 0 | > 1.1% and < 1.1% | 0.8 | – | – | – | – | – | – | BRD4-BD1 (BRD4-BD1): 0; KRAS-G12D (KRas^G12D): 0; STAT5B-NTD (STAT5B-NTD [2]): 0 |
| CC1(CCC(=O)NC2CCN(c3ccc(F)cc3)CC2)N=N1 [PhP012, N1=NC1(C)CCC(=O)NC2CCN(CC2)c3ccc(F)cc3] | 2.8 | 0.9 | 1 | 15.8 | 0 | 2.6 | > 3% and < 3% | 1 | – | – | – | – | – | – | BRD4-BD1 (BRD4-BD1): 0; KRAS-G12D (KRas^G12D): 0; STAT5B-NTD (STAT5B-NTD [2]): 0 |
| COc1ccc(S(=O)(=O)N2CCC(NC(=O)CCC3(C)N=N3)CC2)cc1 [PhP018, COc1ccc(cc1)S(=O)(=O)N2CCC(CC2)NC(=O)CCC3(C)N=N3] | 65.5 | 17.7 | 19.9 | 42 | 0 | 3.7 | – | 0.7 | 0 | 0 | 0 | – | – | – | Number of proteins labeled ([3]; of the six protein targets): four |
| COc1ccc(CCNC(=O)CCC2(C)N=N2)c2ccccc12 [PhP034, c1cccc(c12)c(OC)ccc2CCNC(=O)CCC3(C)N=N3] | 10.6 | 4.7 | 1.7 | 67.8 | 0 | 1.7 | – | 1.1 | 0 | 0 | 0 | – | – | – | Number of targets labeled in higher than 10% amount ([3]; of the six protein targets): two |
| CC1(CCC(=O)NCCNS(=O)(=O)c2cccc([N+](=O)[O-])c2)N=N1 [PhP035, N1=NC1(C)CCC(=O)NCCNS(=O)(=O)c2cccc(c2)N(=O)=O] | 3.7 | 1.8 | 1.3 | 2 | 0 | 0.3 | – | 9.7 | 0 | 0 | 0 | – | – | – | Labeling efficiency over all protein targets (mean ± spread) [3]: 1.5 ± 1.2% |
| Cc1cccc(-c2cnc(CNC(=O)CCC3(C)N=N3)[nH]2)c1 [PhP037, Cc1cccc(c1)-c2cnc([nH]2)CNC(=O)CCC3(C)N=N3] | 4.8 | 0.9 | 1.4 | 11.2 | 2 | 0 | – | 1.5 | 0 | 0 | 0 | – | – | – | Labeling efficiency over all protein targets (mean ± spread) [3]: 3.4 ± 3.8% |
| COc1ccc(OC)c(C(O)C(C)NC(=O)CCC2(C)N=N2)c1 (stereo not drawn) [PhP038, COc1ccc(OC)c(c1)C(O)C(C)NC(=O)CCC2(C)N=N2] | 25.5 | 3.6 | 1.1 | 62.1 | 4.8 | 3.6 | – | 5.1 | – | – | – | 0 | 0 | 0 | Number of targets labeled in higher than 10% amount ([3]; of the six protein targets): two |
| CC1(CCC(=O)NCc2cc3ccccc3[nH]2)N=N1 [PhP040, N1=NC1(C)CCC(=O)NCc(c2)[nH]c(c23)cccc3] | 2.1 | 0.7 | 0.5 | 1.9 | 75 | 0.3 | > 3% and < 3% | 74 | – | – | – | 0 | 0 | 0 | – |
| CCN(CCCNC(=O)CCC1(C)N=N1)c1ccccc1 [PhP048, c1ccccc1N(CC)CCCNC(=O)CCC2(C)N=N2] | 0.4 | 0 | 0 | 29.4 | 2.9 | 2.1 | > 3% and < 3% | 3.2 | – | – | – | 0 | 0 | 0 | – |
| CC1(CCC(=O)NCc2nc3ncccc3[nH]2)N=N1 [PhP053, N1=NC1(C)CCC(=O)NCc(n2)[nH]c(c23)cccn3] | 6.7 | 1.2 | 0.6 | 2 | 0 | 0 | > 2% and < 2% | 1 | – | – | – | 1 | 0 | 0 | – |
| Cc1c[nH]c(=O)n1-c1cccc(CNC(=O)CCC2(C)N=N2)c1 [PhP077, Cc1c[nH]c(=O)n1-c2cccc(c2)CNC(=O)CCC3(C)N=N3] | – | 0.1 | 0.2 | 0.7 | 20 | 0 | > 3% and < 3% | 11.5 | – | – | – | – | – | – | BRD4-BD1 (experimental hit status) (BRD4-BD1; [6]): 0; KRAS-G12D (experimental hit status) (KRas^G12D; [6]): 0; STAT5B-NTD (experimental hit status) (STAT5B-NTD [2]; [6]): 0 |
| Cc1noc(C)c1-c1ccc(CNC(=O)CCC2(C)N=N2)cc1 [PhP080, Cc1noc(C)c1-c2ccc(cc2)CNC(=O)CCC3(C)N=N3] | – | 3 | 3 | 3.2 | 1 | 7.7 | – | 21.1 | – | – | – | – | – | – | BRD4-BD1 (experimental hit status) (BRD4-BD1; [7]): 0; KRAS-G12D (experimental hit status) (KRas^G12D; [7]): 0; STAT5B-NTD (experimental hit status) (STAT5B-NTD [2]; [7]): 0; Labeling efficiency over all protein targets (mean ± spread) [3]: 3.6 ± 2.2% |
